According to patent US20160046579A1, “THERAPEUTIC COMPOUNDS AND COMPOSITIONS” (AGIOS PHARMACEUTICALS, INC., priority 2013, published 2016):

Key:
[1] = target: PKR R510Q (Homo sapiens, UniProt P30613, R510Q); test: PKR Mutant Assay, dose response (AC50), PKR R510Q; format: biochemical; details: PKR R510Q mutant enzyme
Procedure: (§1) • PKR or PKR mutant enzyme solution was diluted in assay buffer. • 2 μL of test compound was added into wells first, and then 180 μL reaction mix was added. • Reactions mixture with test compound was assembled except for ADP, and plates were stored for 60 minutes at room temperature. • 20 uL ADP was added to start reaction at room temperature and reaction progress was measured as changes in absorbance at 340 nm wavelength at room temperature.
(§2) Test Compound Preparation: • Test compound stock was made at 100× concentration in 100% DMSO (10 mM) • 1 to 3 dilutions were made for 11 points (i.e. 50 μl of first concentration added to 100 μl 100% DMSO to yield 3.33 mM, 50 μl of this added to 100 μl DMSO to yield 1.11 mM, and so forth) • 1 to 100 dilution into assay (2 μl in 200 μl) yielded starting concentration of 100 μM, decreasing 3 fold for 11 points.

[2] = target: T1, wt PKR (Homo sapiens, UniProt P30613); test: PKR Mutant Assay, dose response (AC50), wild type PKR enzyme; format: biochemical
Procedure: as §1, §2

[3] = target: PKR R532W (Homo sapiens, UniProt P30613, R532W); test: PKR Mutant Assay, dose response (AC50), PKR R532W; format: biochemical; details: PKR R532W mutant enzyme
Procedure: as §1, §2

[4] = target: T1, wt PKR; test: wt PKR cell based assay

Chain of PKR R510Q (P30613 whole entry R510Q): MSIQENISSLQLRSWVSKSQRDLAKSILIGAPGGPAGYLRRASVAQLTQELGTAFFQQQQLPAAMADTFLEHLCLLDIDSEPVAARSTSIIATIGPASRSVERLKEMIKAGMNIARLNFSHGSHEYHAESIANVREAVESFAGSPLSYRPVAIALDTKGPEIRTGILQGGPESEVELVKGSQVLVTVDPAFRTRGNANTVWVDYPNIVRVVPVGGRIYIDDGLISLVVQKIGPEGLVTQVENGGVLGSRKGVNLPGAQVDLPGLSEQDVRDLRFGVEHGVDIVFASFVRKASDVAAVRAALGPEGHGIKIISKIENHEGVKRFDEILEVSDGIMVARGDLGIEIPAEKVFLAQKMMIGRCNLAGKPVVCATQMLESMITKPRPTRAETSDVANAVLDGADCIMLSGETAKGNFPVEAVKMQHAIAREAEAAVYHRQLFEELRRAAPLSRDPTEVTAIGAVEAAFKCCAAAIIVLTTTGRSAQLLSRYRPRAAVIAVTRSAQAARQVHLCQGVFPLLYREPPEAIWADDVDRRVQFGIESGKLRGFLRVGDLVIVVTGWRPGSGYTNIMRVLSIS
T1 sequence (P30613 whole entry): as the sequence (P30613 whole entry R510Q) above, with Q510R counted along it
Chain of PKR R532W (P30613 whole entry R532W): as the sequence (P30613 whole entry R510Q) above, with Q510R, R532W counted along it

Compound	AC50 [1]	AC50 ([2]; wild type PKR enzyme)	AC50 [3]	AC50 [4]	AC50 ([2]; wild type PKR, enzymatic assay)	AC50 ([4]; wild type PKR)
CC1(O)CCC(C2(O)CCN(C(=O)c3ccc(NS(=O)(=O)c4cccc5nccnc45)cc3)CC2)CC1 (stereo not drawn) [Compound 505]	101 to 1000 nM	101 to 1000 nM	101 to 1000 nM	–	–	–
Cc1noc(C)c1CC1(O)CCN(C(=O)c2ccc(NS(=O)(=O)c3cccc4scnc34)cc2)CC1 [Compound 520, N-(4-(4-((3,5-dimethylisoxazol-4-yl)methyl)-4-hydroxypiperidine-1-carbonyl)phenyl)benzo[d]thiazole-4-sulfonamide]	101 to 1000 nM	< 100 nM	< 100 nM	101 to 1000 nM	–	–
O=C(c1ccc(NS(=O)(=O)c2cccc3scnc23)cc1)N1CCC(O)(c2ncc(Cl)s2)CC1 [Compound 509]	> 10000 nM	1010 to 10000 nM	101 to 1000 nM	–	–	–
CC(F)(F)CCC1(O)CCN(C(=O)c2ccc(NS(=O)(=O)c3cc(F)cc4sc(N)nc34)cc2F)CC1 [Compound 483, 2-amino-N-(4-(4-(3,3-difluorobutyl)-4-hydroxypiperidine-1-carbonyl)-3-fluorophenyl)-6-fluorobenzo[d]thiazole-4-sulfonamide]	101 to 1000 nM	< 100 nM	101 to 1000 nM	101 to 1000 nM	–	–
CC(C)CC1(OC(=O)OCOP(=O)(O)O)CCN(C(=O)c2ccc(NS(=O)(=O)c3cccc4scnc34)cc2)CC1 [Compound 526]	101 to 1000 nM	101 to 1000 nM	101 to 1000 nM	< 100 nM	–	–
O=C(c1ccc(NS(=O)(=O)c2cccc3scnc23)cc1)N1CCC(O)(c2nc(Cl)cs2)CC1 [Compound 481]	1010 to 10000 nM	1010 to 10000 nM	101 to 1000 nM	–	–	–
CC(C)CC1(OP(=O)(O)O)CCN(C(=O)c2ccc(NS(=O)(=O)c3cccc4nccnc34)cc2)CC1 [Compound 525]	> 10000 nM	–	–	101 to 1000 nM	–	–
CC(F)(F)CCC1(O)CCN(C(=O)c2ccc(NS(=O)(=O)c3cccc4scnc34)cc2F)CC1 [Compound 469, N-(4-(4-(3,3-difluorobutyl)-4-hydroxypiperidine-1-carbonyl)-3-fluorophenyl)benzo[d]thiazole-4-sulfonamide]	101 to 1000 nM	101 to 1000 nM	101 to 1000 nM	1010 to 10000 nM	–	–
Cc1cc(C2(O)CCN(C(=O)c3ccc(NS(=O)(=O)c4cccc5nccnc45)cc3)CC2)sn1 [Compound 518, N-(4-(4-hydroxy-4-(3-methylisothiazol-5-yl)piperidine-1-carbonyl)phenyl)quinoxaline-5-sulfonamide]	101 to 1000 nM	< 100 nM	< 100 nM	101 to 1000 nM	–	–
CCS(=O)(=O)CC1(O)CCN(C(=O)c2ccc(NS(=O)(=O)c3cccc4scnc34)cc2)CC1 [Compound 484]	> 10000 nM	1010 to 10000 nM	1010 to 10000 nM	–	–	–
O=C(c1ccc(NS(=O)(=O)c2cccc3scnc23)cc1)N1CCC(O)(Cc2cn[nH]c2)CC1 [Compound 498, N-(4-(4-((1H-pyrazol-4-yl)methyl)-4-hydroxypiperidine-1-carbonyl)phenyl)benzo[d]thiazole-4-sulfonamide]	101 to 1000 nM	< 100 nM	< 100 nM	101 to 1000 nM	–	–
O=C(c1ccc(NS(=O)(=O)c2cccc3scnc23)cc1)N1CCC(O)(c2ccns2)CC1 [Compound 515, N-(4-(4-hydroxy-4-(isothiazol-5-yl)piperidine-1-carbonyl)phenyl)benzo[d]thiazole-4-sulfonamide]	101 to 1000 nM	–	–	101 to 1000 nM	–	–
CC(C)CC1(O)CCN(C(=O)c2ccc(NS(=O)(=O)c3cccc4ncc(O)nc34)cc2)CC1 [Compound 460]	> 10000 nM	> 10000 nM	> 10000 nM	–	–	–
O=C1NCCC1CC1(O)CCN(C(=O)c2ccc(NS(=O)(=O)c3cccc4scnc34)cc2)CC1 (stereo not drawn) [Compound 495]	> 10000 nM	1010 to 10000 nM	1010 to 10000 nM	–	–	–
O=C(c1ccc(NS(=O)(=O)c2cccc3nccnc23)cc1)N1CCC(O)(c2ccns2)CC1 [Compound 517]	101 to 1000 nM	–	–	101 to 1000 nM	–	–
CC(C)(O)CCCC1(O)CCN(C(=O)c2ccc(NS(=O)(=O)c3cccc4nccnc34)cc2)CC1 [Compound 475]	–	> 10000 nM	> 10000 nM	–	–	–
CC(C)CC1(N)CCN(C(=O)c2ccc(NS(=O)(=O)c3cccc4scnc34)cc2)CC1 [Compound 529]	101 to 1000 nM	–	101 to 1000 nM	–	–	–
Nc1nc(CC2(O)CCN(C(=O)c3ccc(NS(=O)(=O)c4cccc5scnc45)cc3)CC2)cs1 [Compound 485]	> 10000 nM	1010 to 10000 nM	1010 to 10000 nM	–	–	–
CN1CCC(CC2(O)CCN(C(=O)c3ccc(NS(=O)(=O)c4cccc5scnc45)cc3)CC2)C1=O (stereo not drawn) [Compound 488]	> 10000 nM	1010 to 10000 nM	101 to 1000 nM	–	–	–
CC(C)CC1(O)CCN(C(=O)c2ccc(NS(=O)(=O)c3cccc4cncnc34)cc2)CC1 [Compound 441]	–	101 to 1000 nM	–	–	–	–
O=C(c1ccc(NS(=O)(=O)c2cccc3scnc23)cc1)N1CCC(O)(Cc2nc(Cl)cs2)CC1 [Compound 489, N-(4-(4-((4-chlorothiazol-2-yl)methyl)-4-hydroxypiperidine-1-carbonyl)phenyl)benzo[d]thiazole-4-sulfonamide]	–	< 100 nM	–	101 to 1000 nM	–	–

Compound	AC50 [1]	AC50 ([2]; wild type PKR enzyme)	AC50 [3]	AC50 [4]	AC50 ([2]; wild type PKR, enzymatic assay)	AC50 ([4]; wild type PKR)
O=C(c1ccc(NS(=O)(=O)c2cccc3nccnc23)cc1)N1CCC(O)(c2sncc2Cl)CC1 [Compound 516, N-(4-(4-(4-chloroisothiazol-5-yl)-4-hydroxypiperidine-1-carbonyl)phenyl)quinoxaline-5-sulfonamide]	101 to 1000 nM	–	–	< 100 nM	–	–
CC(C)CC1(O)CCN(C(=O)c2ccc(NS(=O)(=O)c3cccc4[nH]cnc34)cc2)CC1 [Compound 449]	> 10000 nM	> 10000 nM	> 10000 nM	–	–	–
Cn1ccc(CC2(O)CCN(C(=O)c3ccc(NS(=O)(=O)c4cccc5nccnc45)cc3)CC2)n1 [Compound 507]	> 10000 nM	101 to 1000 nM	101 to 1000 nM	–	–	–
CC(C)CC1(OP(=O)(O)O)CCN(C(=O)c2ccc(NS(=O)(=O)c3cccc4scnc34)cc2)CC1 [Compound 524]	–	> 10000 nM	> 10000 nM	1010 to 10000 nM	–	–
CCn1cc(CC2(O)CCN(C(=O)c3ccc(NS(=O)(=O)c4cccc5scnc45)cc3)CC2)cn1 [Compound 506]	> 10000 nM	1010 to 10000 nM	1010 to 10000 nM	–	–	–
CCn1cc(CC2(O)CCN(C(=O)c3ccc(NS(=O)(=O)c4cccc5nccnc45)cc3)CC2)cn1 [Compound 503]	> 10000 nM	101 to 1000 nM	101 to 1000 nM	–	–	–
O=C(c1ccc(NS(=O)(=O)c2cccc3nccnc23)cc1)N1CCC(O)(Cc2nc(Cl)cs2)CC1 [Compound 494]	101 to 1000 nM	–	–	–	–	–
O=C1NCCC1CC1(O)CCN(C(=O)c2ccc(NS(=O)(=O)c3cccc4nccnc34)cc2)CC1 (stereo not drawn) [Compound 496]	> 10000 nM	1010 to 10000 nM	1010 to 10000 nM	–	–	–
CS(=O)(=O)CC1(O)CCN(C(=O)c2ccc(NS(=O)(=O)c3cccc4scnc34)cc2)CC1 [Compound 472]	1010 to 10000 nM	101 to 1000 nM	101 to 1000 nM	–	–	–
CC(F)(F)CCC1(O)CCN(C(=O)c2ccc(NS(=O)(=O)c3cccc4scnc34)cc2C#N)CC1 [Compound 477, N-(3-cyano-4-(4-(3,3-difluorobutyl)-4-hydroxypiperidine-1-carbonyl)phenyl)benzo[d]thiazole-4-sulfonamide]	1010 to 10000 nM	101 to 1000 nM	101 to 1000 nM	–	–	–
Cn1ccc(C2(O)CCN(C(=O)c3ccc(NS(=O)(=O)c4cccc5scnc45)cc3)CC2)n1 [Compound 450]	> 10000 nM	> 10000 nM	> 10000 nM	–	–	–
CS(=O)(=O)CC1(O)CCN(C(=O)c2ccc(NS(=O)(=O)c3cccc4nccnc34)cc2)CC1 [Compound 474]	1010 to 10000 nM	101 to 1000 nM	101 to 1000 nM	–	–	–
CC1(O)CCC(C2(O)CCN(C(=O)c3ccc(NS(=O)(=O)c4cccc5scnc45)cc3)CC2)CC1 (stereo not drawn) [Compound 504]	1010 to 10000 nM	101 to 1000 nM	1010 to 10000 nM	–	–	–
CS(=O)(=O)CCC1(O)CCN(C(=O)c2ccc(NS(=O)(=O)c3cccc4nccnc34)cc2)CC1 [Compound 470]	> 10000 nM	1010 to 10000 nM	1010 to 10000 nM	–	–	–
CC(C)CC1(O)CCN(C(=O)c2ccc(NS(=O)(=O)c3cnc(O)c4cccnc34)cc2)CC1 [Compound 416]	> 10000 nM	–	–	–	–	–
CCS(=O)(=O)CC1(O)CCN(C(=O)c2ccc(NS(=O)(=O)c3cccc4nccnc34)cc2)CC1 [Compound 490]	> 10000 nM	1010 to 10000 nM	1010 to 10000 nM	–	–	–
Cc1cc(C2(O)CCN(C(=O)c3ccc(NS(=O)(=O)c4cccc5scnc45)cc3)CC2)sn1 [Compound 528, N-(4-(4-hydroxy-4-(3-methylisothiazol-5-yl)piperidine-1-carbonyl)phenyl)benzo[d]thiazole-4-sulfonamide]	–	–	–	–	< 100 nM	101 to 1000 nM
CN1CCC(C2(CO)CCN(C(=O)c3ccc(NS(=O)(=O)c4cccc5scnc45)cc3)CC2)C1=O (stereo not drawn) [Compound 487]	1010 to 10000 nM	1010 to 10000 nM	1010 to 10000 nM	–	–	–
CS(=O)(=O)CCC1(O)CCN(C(=O)c2ccc(NS(=O)(=O)c3cccc4scnc34)cc2)CC1 [Compound 466]	> 10000 nM	1010 to 10000 nM	> 10000 nM	–	–	–
CC(C)(O)CCCC1(O)CCN(C(=O)c2ccc(NS(=O)(=O)c3cccc4scnc34)cc2)CC1 [Compound 476]	–	1010 to 10000 nM	1010 to 10000 nM	–	–	–
